Measured values taken from article PMC7344659, “Bioactivity of Spongian Diterpenoid Scaffolds from the Antarctic Sponge Dendrilla antarctica” (Marine Drugs, 2020).
Read-outs that look alike come from different tables or passages of the source.

Legend:
[1] = tested on: primary human hepatocytes; test: Cytotoxicity towards uninfected primary human hepatocytes; assay type: cell-based; details: for inhibition at 5 µg/mL: Hepatocyte, 5 μg/mL, uninfected primary human hepatocytes, % (Standard Deviation), n = 3, read-out: Plasmodium falciparum Inhibition at 5 μg/mL Uninfected PHHs; for cytotoxicity towards uninfected primary human hepatocytes (in words): 5 µg/mL screen
Description: (§1) The full suite of Dendrilla antarctica-derived compounds, with the exception of darwinolide (1) and dendrillin D (12) owing to mass limitations, were tested against Leishmania donovani infected macrophages, liver-stage sporozoites in primary human hepatocytes, and against MRSA biofilm. Cytotoxicity was evaluated using the mammalian J774A.1 cell line in L. donovani-active compounds, while primary human hepatocytes were evaluated for malaria-active compounds.
(§2) For the Plasmodium falciparum infected liver cells, screening was conducted at a fixed concentration of 5 µg/mL for each compound, and activities representing 60% inhibition and 100% inhibition are reported in comparison with the positive control primaquine. […] Aplysulphurin (2) at ≤13 μM was also active at the highest level.
(§3) The liver-stage Plasmodium falciparum assay was conducted as previously reported.

Leishmania donovani [2] = test: Leishmania donovani infected macrophage assay; assay type: cell-based
Description: as §1
(§4) The results from the Leishmania donovani assay (Table 2) indicate activity commensurate with the positive control and current standard of care, miltefosine (2.9 µM) is observed in aplysulphurin (2, 3.1 μM), tetrahydroaplysulphurin-1 (4, 3.5 μM), dendrillin B (10, 3.5 μM), 8-ketodihydrogracilin (13, 4.5 μM), and triol 15 (4.5 μM).
(§5) The Leishmania donovani cell line infected macrophage assay and cytotoxicity screen were conducted as previously described.

J774A.1 macrophages [3] = test: J774A.1-cell cytotoxicity assay (uninfected macrophage); assay type: cell-based; details: Mus musculus, J774.A1; cytotoxicity, uninfected J774A.1 macrophages; single point determination; read-out: Leishmania donovani IC50 Uninfected Macrophage
Description: as §1, §5

Plasmodium falciparum [4] = test: Liver-stage Plasmodium falciparum assay in primary human hepatocytes; assay type: cell-based; details: for inhibition at 5 µg/mL: Plasmodium falciparum, Hepatocyte, 5 μg/mL, infected primary human hepatocytes, % (Standard Deviation), n = 3, read-out: Plasmodium falciparum Inhibition at 5 μg/mL Infected PHHs; for concentration with 100% inhibition against P. falciparum infected liver cells / concentration with modest activity (60% inhibition) against P. falciparum infected liver cells: screen at fixed 5 µg/mL; for concentration with 100% inhibition against P. falciparum infected liver cells: 100% inhibition level (highest level); for concentration with modest activity (60% inhibition) against P. falciparum infected liver cells: 60% inhibition level
Description: as §1, §2, §3

MRSA biofilm = MRSA biofilm eradication assay; assay type: cell-based, methicillin-resistant Staphylococcus aureus; details: for inhibition at 25 µg/mL / inhibition at 50 µg/mL / inhibition at 100 µg/mL: Staphylococcus aureus, MRSA; for inhibition at 50 µg/mL: 50 μg/mL; for inhibition at 100 µg/mL: 100 μg/mL; for Pathogen Activity, MRSA Biofilm: Table 3, no unit printed there (58 μM); for concentration at which activity against MRSA biofilm was exhibited: eradication level not given
Description: The MRSA biofilm assay was carried out at concentrations of 100, 50, and 25 µg/mL for each compound, and activities representing 50% and 90% eradication are reported.
The MRSA biofilm assay was conducted as previously reported.

J774A.1 macrophages [5] = tested on: J774A.1 macrophages; design: method as in PMID 32281798; details: ref [15], cited from earlier work
Leishmania donovani [6] = tested on: Leishmania donovani; design: method as in PMID 32281798; details: ref [15], cited from earlier work
[7] = Leishmania donovani infected macrophage assay; assay type: cell-based; details: mouse, J774A.1 cytotoxicity / L. donovani activity; read-out: selectivity index (SI, mammalian cytotoxicity/antiprotozoal activity)
Description: as §1, §4, §5

[8] = J774A.1-cell cytotoxicity assay (uninfected macrophage); assay type: cell-based; details: mouse, J774A.1 macrophage cells (uninfected); Table 3; unit not given (μM in Table 2); read-out: J774 Cytotoxiciy
Description: as §1, §5

Plasmodium falciparum [9] = test: Liver-stage Plasmodium falciparum assay in primary human hepatocytes; assay type: cell-based; details: Table 3; SI = J774 IC50/pathogen IC50
[10] = tested on: methicillin-resistant Staphylococcus aureus (MRSA) biofilm; design: method as in PMID 27175857; details: ref [17]; cited from earlier work
[11] = Leishmania donovani, J774.A1, J774A.1 macrophages, single point determination, read-out: Leishmania donovani IC50 Infected Macrophage
[12] = cytotoxicity, uninfected J774A.1 macrophages, single point determination, read-out: Leishmania donovani IC50 Uninfected Macrophage
[13] = J774A.1 macrophages, single point determination, read-out: Leishmania donovani IC50 Infected Macrophage
[14] = Table 3, no unit printed there, same values marked as from reference in Table 2, read-out: J774 Cytotoxiciy
[15] = Leishmania donovani, Macrophage, Table 3, unit not given (μM in Table 2), read-out: Pathogen Activity, Leishmania donovani

SMILES	IC50 (Leishmania donovani [2]; [11])	inhibition at 5 µg/mL [1]	IC50 (J774A.1 macrophages [3])	inhibition at 5 µg/mL (Plasmodium falciparum [4])	inhibition at 25 µg/mL (MRSA biofilm; 25 μg/mL, % (Std. Dev.), n = 6)	inhibition at 50 µg/mL (MRSA biofilm; % (Std. Dev.), n = 6)	inhibition at 100 µg/mL (MRSA biofilm; % (Std. Dev.), n = 6)	further results
C[C@H]1C(=O)O[C@@H]2OC[C@@H]3CCC([C@@]4(C)CCCC(C)(C)C4)=C1[C@@H]32 [Cadlinolide C (8), cadlinolide C]	16 µM	0%	> 160 µM	0%	2.6%	35%	85.4%	
CC(=O)O[C@@H]1O[C@H]2OC(=O)[C@H](C)c3c([C@@]4(C)CCCC(C)(C)C4)ccc1c32 [Aplysulphurin (2), aplysulphurin]		7.6%		100%	6.5%	29.4%	21.1%	cytotoxicity towards uninfected primary human hepatocytes (in words) [1]: no discernable cytotoxicity; concentration with 100% inhibition against P. falciparum infected liver cells (Plasmodium falciparum [4]): ≤ 13 µM; IC50 (J774A.1 macrophages [5]; [12]): 12 µM; IC50 (Leishmania donovani [6]; J774A.1 macrophages, single point determination, listed as 2, read-out: Leishmania donovani IC50 Infected Macrophage): < 10 µM; IC50 (Leishmania donovani [6]; [13]): 3.1 µM
COC(=O)[C@H](C)c1c([C@@]2(C)CCCC(C)(C)C2)ccc2c1C(=O)OC2 [Membranolide (5), membranolide]		0%		59.7%	~100%	99.9%	100%	selectivity ratio [7]: 8; IC50 (J774A.1 macrophages [5]; [14]): 77 µM; IC50 (J774A.1 macrophages [5]; cytotoxicity, uninfected J774A.1 macrophages, single point determination, listed as membranolide (5), read-out: Leishmania donovani IC50 Uninfected Macrophage): 76.8 µM; IC50 (J774A.1 macrophages [5]; [12]): 77 µM; MRSA Biofilm Inhibition 25 μg/mL (MRSA biofilm; 25 μg/mL, % (Std. Dev.), n = 6): 99.7 (0.1) %; Pathogen Activity, MRSA Biofilm (MRSA biofilm): 58; concentration achieving 90% eradication of MRSA biofilm (MRSA biofilm; lowest concentration tested, 25 μg/mL, in molar units): 58 µM; concentration achieving 90% eradication of MRSA biofilm (MRSA biofilm; tested at 100, 50 and 25 µg/mL, 90% eradication): 25 µg/mL; IC50 (Leishmania donovani [6]; J774A.1 macrophages, single point determination, listed as 5, read-out: Leishmania donovani IC50 Infected Macrophage): < 10 µM; IC50 (Leishmania donovani [6]; [13]): 9.7 µM
C/C=C1/[C@@H]2[C@@H](OC(C)=O)O[C@@H](OC(C)=O)[C@@H]2CC[C@@H]1[C@@]1(C)CCCC(C)(C)C1 [9,11-Dihydrogracilin A (3), 9,11-dihydrogracilin A]		1.1%		0%	0%	29.1%	12.7%	IC50 (J774A.1 macrophages [5]; [12]): 23 µM; IC50 (Leishmania donovani [6]; [13]): 9.1 µM
COC(=O)C(C)c1c(C2(C)CCCC(C)(C)C2)ccc2c1C(O)OC2=O (stereo not shown) [Dendrillin B (10), dendrillin B]		0%	> 140 µM	0%	37%	19.4%	90.7%	IC50 (Leishmania donovani [2]; [13]): < 10 µM; IC50 (Leishmania donovani [2]; [15]): 3.5 µM; IC50 [8]: > 140 µM
CC(=O)OC1OC2OC(=O)C(C)C3=C(C4(C)CCCC(C)(C)C4)CCC1C32 (stereo not shown) [Tetrahydroaplysulphurin-1 (4), tetrahydroaplysulphurin-1]		3%		66.7%	35%	31.1%	20.8%	concentration with modest activity (60% inhibition) against P. falciparum infected liver cells (Plasmodium falciparum [4]): ≤ 13 µM; IC50 (J774A.1 macrophages [5]; [14]): > 130 µM; IC50 (J774A.1 macrophages [5]; [12]): > 130 µM; IC50 (Leishmania donovani [6]; [13]): 3.5 µM; IC50 (Leishmania donovani [6]; Table 3, unit not given (μM in Table 2), read-out: Pathogen Activity, Leishmania donovani): 3.5 µM
CC(=O)O[C@@H]1O[C@H]2OC(=O)C3=C(C)[C@@H]([C@@]4(C)CCCC(C)(C)C4)CC[C@@H]1[C@H]32 [darwinolide (1), darwinolide]								potency against MRSA biofilm relative to planktonic MRSA [10]: four times more potent against the biofilm than it was against planktonic MRSA
COc1cc(NC(C)CCCN)c2ncccc2c1 (stereo not shown) [Primaquine, primaquine, reference compound]		0%		97.8%				
CC(=O)OC1OC(OC(C)=O)C2C(=O)C(C3(C)CCCC(C)(C)C3)CCC12 (stereo not shown) [8-Ketodihydrogracilin (13), 8-ketodihydrogracilin]	4.5 µM	2.3%	22 µM	0%	5.7%	97.7%	99.7%	IC50 (Leishmania donovani [2]; [15]): 4.5 µM; Selectivity Index (SI), Leishmania donovani (Leishmania donovani [2]; Table 3, SI = J774 IC50/pathogen IC50): 5; IC50 [8]: 22 µM; concentration at which activity against MRSA biofilm was exhibited (MRSA biofilm; tested at 100, 50 and 25 µg/mL): 50 µg/mL

Continued, in another order:

IC50 (Leishmania donovani [2]; [11])	SMILES	inhibition at 5 µg/mL [1]	IC50 (J774A.1 macrophages [3])	inhibition at 5 µg/mL (Plasmodium falciparum [4])	inhibition at 25 µg/mL (MRSA biofilm; 25 μg/mL, % (Std. Dev.), n = 6)	inhibition at 50 µg/mL (MRSA biofilm; % (Std. Dev.), n = 6)	inhibition at 100 µg/mL (MRSA biofilm; % (Std. Dev.), n = 6)	further results
2.9 µM	CCCCCCCCCCCCCCCCOP(=O)([O-])OCC[N+](C)(C)C [Miltefosine, miltefosine, reference compound]		> 120 µM					
4.5 µM	C[C@@H](CO)c1c([C@@]2(C)CCCC(C)(C)C2)ccc(CO)c1CO [Triol (15)]	2.2%	> 160 µM	81%	2.6%	12.3%	9.3%	Selectivity Index (SI), Plasmodium falciparum (Plasmodium falciparum [9]): >10; cytotoxicity towards uninfected primary human hepatocytes (in words) [1]: no discernable cytotoxicity; selectivity ratio [7]: > 38; selectivity index (SI, mammalian cytotoxicity/antiprotozoal activity) (Leishmania donovani [2]; J774A.1 cytotoxicity / L. donovani activity): ~40; IC50 (Leishmania donovani [2]; [13]): 4.2 µM; IC50 [8]: > 160 µM; Pathogen Activity, Plasmodium falciparum (Plasmodium falciparum [4]; Table 3, no unit printed there (≤16 μM)): ≤16; inhibition of the parasite cultures (Plasmodium falciparum) (Plasmodium falciparum [4]; at low micromolar concentrations): 100%; concentration with 100% inhibition against P. falciparum infected liver cells (Plasmodium falciparum [4]): ≤ 16 µM
8.8 µM	C/C(=C1\CCCC1(C)C)[C@H]1CC[C@H]2C(=O)OC[C@H]2C1(C)C [Glaciolide (6), glaciolide]	4.5%	> 170 µM	0%	20%	20.8%	32.2%	
14 µM	CC(=O)O[C@@H]1O[C@H](OC(C)=O)[C@@H]2[C@H]1CC[C@H](/C(C)=C1/CCCC1(C)C)C2(C)C [Compound 7]	0.7%	18 µM	39.3%	3.9%	28.7%	2.9%	
9.9 µM	CC(=O)O[C@@H]1OC2OC(=O)[C@H](C)C34OOC([C@@]5(C)CCCC(C)(C)C5)(CC[C@@H]1C23)O4 (stereo partly shown) [Ozonide (14), tetrahydroaplysulphurin ozonide]	18.6%	17 µM	61.7%	17.7%	40.6%	99.9%	concentration with modest activity (60% inhibition) against P. falciparum infected liver cells (Plasmodium falciparum [4]): ≤ 15 µM
6 µM	CC(=O)OC1OC(OC(C)=O)C2C1CCC(C1(C)CCCC(C)(C)C1)C21OC1C (stereo not shown) [Dendrillin A (9), dendrillin A]	2.9%	9 µM	4.3%	0%	0%	0%	
> 31 µM	CCC1=C(C=O)[C@H](C(=O)OC)CC[C@@H]1[C@@]1(C)CCCC(C)(C)C1 (relative stereo) [Dendrillin C (11), dendrillin C]	3.4%	> 160 µM	1.3%	84%	97.8%	99.2%	IC50 [8]: > 160 µM; Pathogen Activity, MRSA Biofilm (MRSA biofilm): 78; concentration achieving 50% eradication of MRSA biofilm (MRSA biofilm; tested at 100, 50 and 25 µg/mL, 50% eradication): 25 µg/mL; concentration at which activity against MRSA biofilm was exhibited (MRSA biofilm; tested at 100, 50 and 25 µg/mL): 50 µg/mL
